Test results taken from PMC6968775, “Assessment of contribution of BCRP to intestinal absorption of various drugs using portal‐systemic blood concentration difference model in mice” (Pharmacology Research & Perspectives, 2020).
Several values for one entry are separate records, joined by “and”; a condition that tells them apart may be missing. Equal entries are not always repeated. Structures can show the parent of a compound that is named as a salt.

Legend:
[1] = Pharmacokinetics after iv and oral administration, P‐S difference method, wild‐type mice; assay type: in vivo; conditions: for half-life / AUC(0-inf) / Cmax / Tmax: 1 mg/kg
Description: (§1) Male Mdr1a/1b(−/−) and Bcrp(−/−) mice, and WT mice of the same genetic background (FVB) were obtained from Taconic Farms (Germantown, NY, USA). […] Food and water were available ad libitum. All experiments were carried out in accordance with the principles and procedures outlined in the National Institutes of Health Guide for the Care and Use of Laboratory.
(§2) All the mice were fasted overnight with free access to tap water. In the intravenous administration studies, model compounds were administered via the tail vein at doses of 1 mg/kg (n = 3). Following administration, blood samples were collected from the abdominal vein of the anesthetized mice at 0.083, 0.17, 0.5, 1, 2, 4, and 8 hours. […] Following administration, blood samples were taken from the portal and abdominal veins of the anesthetized mice at 0.083, 0.17, 0.5, 1, 2, 4, and 8 hours. The plasma samples were separated by centrifugation at 14 000g for 10 minutes at 4°C and stored at −30°C until analysis.
(§3) After organic layer was evaporated at 60°C, the resultant residues were dissolved in a mobile phase. For the determination of topotecan and sulfasalazine, plasma samples were mixed with acetonitrile, centrifuged at 750 g for 10 minutes at 4°C, and the supernatants were collected. After the evaporation of the supernatants, the residues were dissolved in a mobile phase, and acidified with phosphoric acid for topotecan. All drugs were analyzed by HPLC system (Shimadzu LC‐10AS pump, Shimadzu SIL‐10A autosampler) equipped with a reverse‐phase column (COSMOSIL 5C18‐AR‐II, 3.5‐μm […], 4.6 × 150 mm).
(§4) Elimination rate constant (k e) was determined by the least squares regression analysis of plasma concentration vs time curve. Elimination half‐life (t 1/2) was calculated using Eq.1:(1) t1/2=ln2/ke
(§5) Area under plasma concentration‐time curve (AUC) and area under the first moment curve (AUMC) from time 0 to infinity were calculated by trapezoidal rule.
(§6) Absorption rate constant (k a) after oral administration was calculated by the nonlinear least squares fitting with program MULTI.12
(§7) BA was calculated by Eq.5:(7) BA=AUCoral/AUCiv×Doseiv/Doseoral×100 where AUCoral is AUC after oral administration. Doseiv and Doseoral are administered dose in the intravenous and oral administration study, respectively.
(§8) Hepatic availability (F h) was calculated by Eq.6:(8) Fh=F/Fa×Fg

[2] = Pharmacokinetics after iv and oral administration, P‐S difference method, Bcrp(−/−) mice; assay type: in vivo
Description: as §1, §2, §3, §4, §5, §6, §7, §8

[3] = Pharmacokinetics after iv and oral administration, P‐S difference method, Mdr1a/1b(−/−) mice; assay type: in vivo
Description: as §1, §2, §3, §4, §5, §6, §7, §8

[4] = Blood/plasma concentration ratio (R b) in fresh whole blood; assay type: in vitro ADME, FVB mice; conditions: fresh whole blood, FVB mouse whole blood, 37°C
Description: Similarly, the model compounds were added to plasma, and reference blood samples were obtained according to the same procedure. These concentrations of drugs in each sample were analyzed using HPLC (C B and C P, respectively). R b value was calculated by dividing C B by C P.

BCRP [5] = experiment: Human AQBCRP estimated from the clinical data; assay type: in vivo
BCRP [6] = conditions: calculated from k a in WT, Bcrp(−/−) and Mdr1a/1b(−/−) mice (Eq. 9)
P‐gp [7] = test system: P‐gp
P‐gp [8] = conditions: Caco‐2 permeability study; unpublished data; ref Fujita et al, manuscript in preparation; cited from earlier work
[9] = cited from earlier work
[10] = male, FVB (wild-type), mouse, portal vein plasma, po
[11] = male, FVB (wild-type), mouse, systemic plasma (abdominal vein), po
[12] = wild‐type mice, p.o. (ciprofloxacin 1, nitrofurantoin 2, topotecan 1, sulfasalazine 5 mg/kg)
[13] = Bcrp(−/−) mice, p.o. (ciprofloxacin 1, nitrofurantoin 2, topotecan 1, sulfasalazine 5 mg/kg)
[14] = male, Bcrp(−/−) (FVB background), mouse, portal vein plasma, po, 1 mg/kg
[15] = male, Bcrp(−/−) (FVB background), mouse, systemic plasma (abdominal vein), po, 1 mg/kg
[16] = Mdr1a/1b(−/−) mice, p.o. (ciprofloxacin 1, nitrofurantoin 2, topotecan 1, sulfasalazine 5 mg/kg)
[17] = male, Mdr1a/1b(−/−) (FVB background), mouse, portal vein plasma, po, 1 mg/kg
[18] = male, Mdr1a/1b(−/−) (FVB background), mouse, systemic plasma (abdominal vein), po, 1 mg/kg

CC[C@@]1(O)C(=O)OCc2c1cc1n(c2=O)Cc2cc3c(CN(C)C)c(O)ccc3nc2-1 [topotecan, Topotecan HCl]
k a, wt ([1]; Table 5 summary, WT mice, oral administration): 3.18
(F a F g) wt ([1]; as fraction, WT mice, oral administration): 0.57
clearance ([1]; male, FVB (wild-type), mouse, plasma (systemic, abdominal vein), wild‐type mice, iv 1 mg/kg, read-out: CL tot (converted)): 36.7 mL/min/kg
Vd ([1]; male, FVB (wild-type), mouse, plasma (systemic, abdominal vein), wild‐type mice, iv 1 mg/kg, read-out: Vdss): 2.59 L/kg
half-life ([1]; male, FVB (wild-type), mouse, plasma, iv, wild‐type mice, iv 1 mg/kg): 75.6 min
AUC(0-inf) ([1]; male, FVB (wild-type), mouse, plasma, iv, wild‐type mice, iv 1 mg/kg, read-out: AUC 0→∞): 0.994 µM·h
Cmax [1, 10]: 720 nM
Tmax [1, 10]: 4.8 min
AUC(0-inf) ([1]; male, FVB (wild-type), mouse, portal vein plasma, po, wild‐type mice, p.o. (ciprofloxacin 1, nitrofurantoin 2, topotecan 1, sulfasalazine 5 mg/kg), portal vein (pv) plasma, read-out: AUC 0→∞ (AUCpv)): 0.577 µM·h
Cmax [1, 11]: 218 nM
Tmax [1, 11]: 30 min
half-life ([1]; male, FVB (wild-type), mouse, systemic plasma (abdominal vein), po, wild‐type mice, p.o. (ciprofloxacin 1, nitrofurantoin 2, topotecan 1, sulfasalazine 5 mg/kg), systemic (sys) plasma): 62.4 min
AUC(0-inf) ([1]; male, FVB (wild-type), mouse, systemic plasma (abdominal vein), po, wild‐type mice, p.o. (ciprofloxacin 1, nitrofurantoin 2, topotecan 1, sulfasalazine 5 mg/kg), systemic (sys) plasma, read-out: AUC 0→∞ (AUCsys)): 0.37 µM·h
F h [1, 12]: 65.6%
k a [1, 12]: 3.18 h⁻¹
F a F g ([1]; wild‐type mice, p.o. (ciprofloxacin 1, nitrofurantoin 2, topotecan 1, sulfasalazine 5 mg/kg), P‐S difference method): 57% and 56.8%
F h [2, 13]: 74.0%
k a [2, 13]: 5.18 h⁻¹
BA ([2]; Bcrp(−/−) mice, p.o. (ciprofloxacin 1, nitrofurantoin 2, topotecan 1, sulfasalazine 5 mg/kg) vs iv 1 mg/kg): 76.3%
F a F g ([2]; Bcrp(−/−) mice, p.o. (ciprofloxacin 1, nitrofurantoin 2, topotecan 1, sulfasalazine 5 mg/kg), P‐S difference method): 103%
k a, bcrp ([2]; Table 5 summary, Bcrp(−/−) mice, oral administration): 5.18
(F a F g)bcrp ([2]; as fraction, Bcrp(−/−) mice, oral administration): 1.03
half-life ([2]; male, Bcrp(−/−) (FVB background), mouse, plasma, iv, 1 mg/kg, Bcrp(−/−) mice, iv 1 mg/kg): 89.4 min
Cmax [2, 14]: 855 nM
Tmax [2, 14]: 4.8 min
Cmax [2, 15]: 476 nM
Tmax [2, 15]: 10.2 min
AUC(0-inf) ([2]; male, FVB Bcrp(−/−), mouse, plasma (systemic, abdominal vein), iv, 1 mg/kg, Bcrp(−/−) mice, iv 1 mg/kg, read-out: AUC 0→∞): 1.49 µM·h
clearance ([2]; male, FVB Bcrp(−/−), mouse, plasma (systemic, abdominal vein), Bcrp(−/−) mice, iv 1 mg/kg, read-out: CL tot (converted)): 24.5 mL/min/kg
Vd ([2]; male, FVB Bcrp(−/−), mouse, plasma (systemic, abdominal vein), Bcrp(−/−) mice, iv 1 mg/kg, read-out: Vdss): 2.21 L/kg
AUC(0-inf) ([2]; male, FVB Bcrp(−/−), mouse, portal vein plasma, po, 1 mg/kg, Bcrp(−/−) mice, p.o. (ciprofloxacin 1, nitrofurantoin 2, topotecan 1, sulfasalazine 5 mg/kg), portal vein (pv) plasma, read-out: AUC 0→∞ (AUCpv)): 1.51 µM·h
AUC(0-inf) ([2]; male, FVB Bcrp(−/−), mouse, portal vein plasma, po, Bcrp(−/−) mice, p.o. (ciprofloxacin 1, nitrofurantoin 2, topotecan 1, sulfasalazine 5 mg/kg), portal vein (pv) plasma, read-out: AUC 0→∞ (AUCpv)): 1.51 µM·h
half-life ([2]; male, FVB Bcrp(−/−), mouse, systemic plasma (abdominal vein), po, 1 mg/kg, Bcrp(−/−) mice, p.o. (ciprofloxacin 1, nitrofurantoin 2, topotecan 1, sulfasalazine 5 mg/kg), systemic (sys) plasma): 88.2 min
AUC(0-inf) ([2]; male, FVB Bcrp(−/−), mouse, systemic plasma (abdominal vein), po, 1 mg/kg, Bcrp(−/−) mice, p.o. (ciprofloxacin 1, nitrofurantoin 2, topotecan 1, sulfasalazine 5 mg/kg), systemic (sys) plasma, read-out: AUC 0→∞ (AUCsys)): 1.14 µM·h
AUC(0-inf) ([2]; male, FVB Bcrp(−/−), mouse, systemic plasma (abdominal vein), po, Bcrp(−/−) mice, p.o. (ciprofloxacin 1, nitrofurantoin 2, topotecan 1, sulfasalazine 5 mg/kg), systemic (sys) plasma, read-out: AUC 0→∞ (AUCsys)): 1.14 µM·h
AUC pv and AUC sys after oral administration, Bcrp(−/−) mice vs WT mice ([2]; oral administration): approximately 3 fold
F h [3, 16]: 54.8%
k a [3, 16]: 3.68 h⁻¹
BA ([3]; Mdr1a/1b(−/−) mice, p.o. (ciprofloxacin 1, nitrofurantoin 2, topotecan 1, sulfasalazine 5 mg/kg) vs iv 1 mg/kg): 34.9%
F a F g ([3]; Mdr1a/1b(−/−) mice, p.o. (ciprofloxacin 1, nitrofurantoin 2, topotecan 1, sulfasalazine 5 mg/kg), P‐S difference method): 63.8%
k a, P‐gp ([3]; Table 5 summary, Mdr1a/1b(−/−) mice, oral administration): 3.68
(F a F g)P‐gp ([3]; as fraction, Mdr1a/1b(−/−) mice, oral administration): 0.64
clearance ([3]; male, FVB Mdr1a/1b(−/−), mouse, plasma (systemic, abdominal vein), Mdr1a/1b(−/−) mice, iv 1 mg/kg, read-out: CL tot (converted)): 35.5 mL/min/kg
Vd ([3]; male, FVB Mdr1a/1b(−/−), mouse, plasma (systemic, abdominal vein), Mdr1a/1b(−/−) mice, iv 1 mg/kg, read-out: Vdss): 2.19 L/kg
AUC(0-inf) ([3]; male, FVB Mdr1a/1b(−/−), mouse, portal vein plasma, po, 1 mg/kg, read-out: AUC 0→∞ (AUCpv)): 0.589 µM·h
AUC(0-inf) ([3]; male, FVB Mdr1a/1b(−/−), mouse, systemic plasma (abdominal vein), po, 1 mg/kg, read-out: AUC 0→∞ (AUCsys)): 0.358 µM·h
half-life ([3]; male, Mdr1a/1b(−/−) (FVB background), mouse, plasma, Mdr1a/1b(−/−) mice, iv 1 mg/kg): 64.8 min
AUC(0-inf) ([3]; male, Mdr1a/1b(−/−) (FVB background), mouse, plasma, Mdr1a/1b(−/−) mice, iv 1 mg/kg, read-out: AUC 0→∞): 1.02 µM·h
Cmax [3, 17]: 664 nM
Tmax [3, 17]: 4.8 min
Cmax [3, 18]: 242 nM
Tmax [3, 18]: 10.2 min
half-life [3, 18]: 73.8 min
blood plasma ratio at 15 min, 1 µg/mL [4]: 0.94 ± 0.05
human AQBCRP (BCRP [5]): 0.58
AQ bcrp (in vivo) (BCRP [6]): 0.35
AQ P‐gp (in vivo) (P‐gp [7]; calculated from k a in WT, Bcrp(−/−) and Mdr1a/1b(−/−) mice (Eq. 10)): 0.08
R P‐gp (rate of P‐gp contribution) (P‐gp [7]; in vivo (mice), calculated from F a F g in WT, Bcrp(−/−) and Mdr1a/1b(−/−) mice (Eq. 12)): 0.06
AQp‐gp in vitro (Caco‐2) (P‐gp [8]): 0.14
BA after oral administration ([9]; human clinical studies): about 40%
human BA ([9]; human): 40%
oral BA, patients heterozygous variant for the BCRP SNP vs normal BCRP ([9]; human): 1.3 fold
BA when GF120918 is orally coadministered ([9]; human, with GF120918 (BCRP inhibitor)): 100%
